Data as given in patent US5989846A, “Assays to identify inducers of plant defense resistance” (Rutgers, The State University of New Jersey, priority 1995, dated 1999).

What was measured:
[1] = tested on: salicylic acid binding protein; assay: Competitive [14C] salicylic acid binding assay (spin-column); set-up: species or system tobacco; conditions: [14C] salicylic acid 20 μM
Description: The 180 kDa native binding protein isolated was tested for binding affinity and specificity. A competitive assay was established using salicylic acid binding protein fractionated from plants as previously described.
A key element during the characterization and the purification process is a simple, inexpensive, sensitive and reliable method for determining the salicylic acid binding activity. For this purpose, spin-column exclusion chromatography was used to separate the bound [^14 C] salicylic acid (excluded) from the bulk free salicylic acid (included). Specifically, a 1.5 ml Eppendorf tube was punctured at the tip with a 20-gauge needle and a small amount of glass wool was added to cover the small hole. The tube was then filled with Bio-Gel P-6DG desalting gel (exclusion limit 6 KDa; purchased from Bio-Rad, Melville, N.Y.) which have been swollen in water. An alternative gel is Sephadex G-25 fine (from Pharmacia, Piscataway, N.J.). Excess liquid in the gel was removed and centrifuged for 5 minutes at full speed in a Dynamic centrifuge (Becton Dickinson). The process was then repeated several times until the gel filled the tube. After incubation of an aliquot of the extract or column fractions for 2 hr at 4° C. with 5 μM-20 μM [^14 C salicylic acid] (specifically radioactivity 55 Ci/mol; purchased from New England Nuclear), 150 μl of proteins binding sample was loaded onto the tube column, which was then rapidly centrifuged for 2 minutes at full speed and the solution of proteins and bound [^14 C-salicylic acid] that was excluded from the gel was collected into another tube that had been placed under the tube column during the centrifugation. One hundred microliters of this solution was then used to determine the amount of bound salicylic acid. […] For example, to determine the inhibitory effect of various salicylic acid analogues on salicylic acid binding activity, these individual analogues were included in the binding mixture containing both the protein and [^14 C] salicylic acid during the 2 hr incubation, and resulting binding activity was determined in comparison to the activity in the absence of these analogues. Likewise, to determine the effect of pH and antioxidants on the binding activity the protein sample was either dialyzed against a large volume of buffers with different pH or antioxidants were added to the protein sample to various concentrations and the resulting binding activities were then determined with the spin-column method in comparison with the activity determined in the absence of these treatments.

[2] = biological target: T1, catalase activity of SABP (Nicotiana tabacum, UniProt P49319); assay: Catalase activity of highly purified SABP (luminol method); assay type: biochemical, tobacco; conditions: 0.05 h; 1 mM SA or analogue, 1 mM H2O2, 500 ng highly purified SABP
T1 sequence (P49319 1-492): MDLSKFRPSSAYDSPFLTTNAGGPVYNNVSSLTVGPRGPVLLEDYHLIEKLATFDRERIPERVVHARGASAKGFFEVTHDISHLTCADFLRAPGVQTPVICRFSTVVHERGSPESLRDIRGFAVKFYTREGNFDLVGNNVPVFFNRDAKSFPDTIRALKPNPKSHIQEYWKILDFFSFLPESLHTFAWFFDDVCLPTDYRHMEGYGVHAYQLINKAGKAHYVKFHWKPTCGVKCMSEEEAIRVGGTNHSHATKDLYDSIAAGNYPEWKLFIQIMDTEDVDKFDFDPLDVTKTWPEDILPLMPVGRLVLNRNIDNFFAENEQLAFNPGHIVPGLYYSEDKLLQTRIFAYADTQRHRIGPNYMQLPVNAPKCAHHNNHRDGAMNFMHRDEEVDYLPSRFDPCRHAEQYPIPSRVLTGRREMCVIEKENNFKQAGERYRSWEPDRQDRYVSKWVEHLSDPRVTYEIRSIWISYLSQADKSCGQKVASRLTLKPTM
Description: Aliquots (50 μl) were removed from the assay mixture at 30 second intervals to assay for amount of H2 O2 remaining using the luminol method as has been described by Warm and Laties, Phytochem. […] The tube was placed in the measuring chamber and assay was initiated with automatic injection into the mixture of 100 μl of 0.5 mM K3 Fe(CN)6 in 0.2N NH4 OH, pH 9.5. Measurements were integrated over 5 second periods. H2 O2 was calculated from the standard curve constructed with known amounts of H2 O2. Rate constants of SABP catalase activity in the presence or absence of SA or its analogues were then calculated based on a first-order mechanism.

H2 O2 = assay: Abundance of H2O2 in treated tobacco leaves; assay type: in vivo; conditions: FIG. 11
Source text: The abundance of H2 O2 increased in SA- or 3AT-treated tobacco leaves by 50-60% over the control levels observed in water-treated leaves. […] Thus, elevated levels of H2 O2, and in turn, enhanced oxidative stress in vivo, were consistent with inhibition of catalase activity by SA observed in vitro.

ascorbate peroxidase = assay: Ascorbate peroxidase activity in tobacco leaf extracts; assay type: biochemical, Nicotiana tabacum cv. Xanthi nc; conditions: 200 μM compound, corrected for quenching of auto oxidation
Summary of the method: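 Soluble extracts from leaves of 6–8-week Nicotiana tabacum cv. Xanthi nc, desalted into 50 mM potassium phosphate pH 7 with 100 μM ascorbate, were assayed (30–50 μg protein) with or without 100 or 1000 μM SA or INA. Ascorbate oxidation followed as A290 decrease; means of three replicates.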

[3] = tested on: resistance or PR gene expression; set-up: key: ++: indicates a high level of biological activity; +: indicates a lower level of biological activity; ±: indicates low, but detectable biological activity in some assays; -: indicates no biological activity; conditions: Table 3; values reported in literature; cited from earlier work
SABP = tested on: SABP; set-up: concentration or dose not given beside the values; conditions: Table 6; previously published data (Chen et al. 1993); cited from earlier work
bovine catalase = biological target: T2, bovine catalase (Bos taurus, UniProt P00432); conditions: Kirkman and Gaetani 1984; cited from earlier work
T2 sequence (P00432 2-527 limits assumed): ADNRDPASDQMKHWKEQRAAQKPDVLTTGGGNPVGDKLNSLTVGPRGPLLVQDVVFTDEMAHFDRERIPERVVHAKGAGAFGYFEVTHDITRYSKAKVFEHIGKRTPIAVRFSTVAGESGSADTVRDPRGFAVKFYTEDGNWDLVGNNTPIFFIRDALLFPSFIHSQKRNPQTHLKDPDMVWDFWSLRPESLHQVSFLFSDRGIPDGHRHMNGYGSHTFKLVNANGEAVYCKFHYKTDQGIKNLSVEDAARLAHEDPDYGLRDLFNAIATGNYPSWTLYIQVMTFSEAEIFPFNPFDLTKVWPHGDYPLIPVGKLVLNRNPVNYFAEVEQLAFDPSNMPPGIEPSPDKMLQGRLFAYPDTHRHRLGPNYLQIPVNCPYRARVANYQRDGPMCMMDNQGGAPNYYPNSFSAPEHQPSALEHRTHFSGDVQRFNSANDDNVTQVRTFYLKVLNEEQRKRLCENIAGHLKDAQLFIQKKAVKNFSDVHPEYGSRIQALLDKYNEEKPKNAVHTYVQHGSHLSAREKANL

| Inhibition (%) 2× ([1]; 40 μM (2×) unlabeled competitor) [%] | Inhibition (%) 10× ([1]; 200 μM (10×) unlabeled competitor) [%] | inhibition at 1000 µM [2] [%] | % Inhibition of ascorbate peroxidase (ascorbate peroxidase) [%] | SMILES | Increase in abundance of H2O2 over water-treated leaves (H2 O2) | Biological activity [3] | Inhibition (%) [14C]SA binding (SABP) [%] | Binding to bovine catalase (bovine catalase) |
| --- | --- | --- | --- | --- | --- | --- | --- | --- |
| -2 | 0 | 3.1 | 28 ± 7 | O=C(O)c1cccc(O)c1 [3-Hydroxybenzoic acid] | unable to enhance | - | 1 |  |
|  |  |  |  | NC(=O)C1=CN([C@@H]2O[C@H](COP(=O)(O)OP(=O)(O)OC[C@H]3O[C@@H](n4cnc5c(N)ncnc54)[C@H](OP(=O)(O)O)[C@@H]3O)[C@@H](O)[C@H]2O)C=CC1 [NADPH, nicotinamide adenine dinucleotide phosphate] |  |  |  | tightly binds |
|  |  |  |  | NC(=O)C1=CN([C@@H]2O[C@H](COP(=O)(O)OP(=O)(O)OC[C@H]3O[C@@H](n4cnc5c(N)ncnc54)[C@H](O)[C@@H]3O)[C@@H](O)[C@H]2O)C=CC1 [NADH, nicotinamide adenine dinucleotide] |  |  |  | tightly binds |
